Counter-ions that a name gives are not always drawn. Like-named read-outs stand apart in the source and are kept apart here.
Experiments:
human LPA1 receptor = molecular target: T1, human LPA1 receptor (Homo sapiens, UniProt Q92633); assay: LPA1/SRE-luc reporter assay in RH7777 cells stably expressing human LPA1 receptor and SRE-Luc2; format: cell-based; conditions: read-out: LPA1/SRE-luc EC50
T1 construct: expressed in transfected cells; host or cells: rat hepatocellular carcinoma cell line RH7777 (made 'similarly' to the LPA4 line)
T1 sequence (Q92633 whole entry): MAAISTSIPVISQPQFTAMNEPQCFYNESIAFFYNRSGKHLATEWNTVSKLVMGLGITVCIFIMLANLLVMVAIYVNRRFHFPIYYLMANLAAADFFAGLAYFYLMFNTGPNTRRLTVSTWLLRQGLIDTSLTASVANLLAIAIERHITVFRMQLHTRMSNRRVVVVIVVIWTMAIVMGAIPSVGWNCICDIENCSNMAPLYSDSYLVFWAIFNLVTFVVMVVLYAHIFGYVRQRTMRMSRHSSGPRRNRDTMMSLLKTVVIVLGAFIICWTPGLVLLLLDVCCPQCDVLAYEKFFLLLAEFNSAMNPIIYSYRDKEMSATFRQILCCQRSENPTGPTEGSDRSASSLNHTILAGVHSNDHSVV
Experimental: (§1) A stably expressing cell line that constantly expresses the human LPA4 receptor and SRE-Luc2 was established by the gene targeting introduction method of the rat hepatocellular carcinoma cell line RH7777 into rRosa26 site. Similarly, stably expressing cell lines for human LPA1 receptor and SRE-Luc2 were also established. Each cell line was seeded on a collagen-coated dish and maintained in culture, and cells were collected with trypsin EDTA and the required number (5×10^3 cells/well) was seeded on a 96-well plate. After culturing overnight at 37° C., LPA (Avanti Polar Lipids, Inc.) or each Example compound diluted with an assay medium added or not added with BSA was added, and the cells were cultured at 37° C. for 6 hr. Thereafter, a luciferase detection reagent (Bright-Glo, Promega) was added, and the chemiluminescence amount was quantified with an Envision (registered trade mark) multi-label counter (PerkinElmer) and used as an index of agonist activity.
(§2) The EC50 value of LPA or each Example compound was calculated using the […] Graph pad Prism for Windows ver.5.02 and ver.7.04. % Emax was expressed as the ratio of the maximum response (Emax) of LPA or each Example compound to the maximum response (Emax) of the positive control compound VPC 31144S (N-{(1S)-2-hydroxy-1-[(phosphonooxy)methyl]ethyl}(9Z) cctadec-9-enamide), with the Emax of the positive control compound VPC 31144S as 100%.

human LPA4 receptor = molecular target: T2, human LPA4 receptor (Homo sapiens, UniProt Q99677); assay: LPA4/SRE-luc reporter assay in RH7777 cells stably expressing human LPA4 receptor and SRE-Luc2; format: cell-based; conditions: for EC50: read-out: LPA4/SRE-luc EC50
T2 construct: expressed in transfected cells; host or cells: rat hepatocellular carcinoma cell line RH7777, targeted integration at the rRosa26 site
T2 sequence (Q99677 whole entry): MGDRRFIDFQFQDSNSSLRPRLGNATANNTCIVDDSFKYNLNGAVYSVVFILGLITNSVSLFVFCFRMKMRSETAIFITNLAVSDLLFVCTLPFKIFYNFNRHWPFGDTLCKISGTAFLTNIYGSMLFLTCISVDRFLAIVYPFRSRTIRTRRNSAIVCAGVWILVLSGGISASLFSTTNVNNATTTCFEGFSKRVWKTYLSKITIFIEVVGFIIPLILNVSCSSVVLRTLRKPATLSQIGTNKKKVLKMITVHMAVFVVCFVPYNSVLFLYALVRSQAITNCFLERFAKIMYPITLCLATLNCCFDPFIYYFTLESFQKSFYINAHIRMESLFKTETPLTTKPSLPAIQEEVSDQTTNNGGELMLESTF
Experimental: as §1, §2

[1] = RH7777, BSA not added, Emax of positive control VPC 31144S as 100%, read-out: LPA4/SRE-luc % Emax
[2] = RH7777, read-out: LPA4/SRE-luc % Emax
[3] = RH7777, BSA added, Emax of positive control VPC 31144S as 100%, read-out: LPA4/SRE-luc % Emax

Row | SMILES | EC50 (human LPA1 receptor; BSA not added) [nM] | EC50 (human LPA4 receptor; BSA not added) [nM] | Emax (human LPA4 receptor; [1]) [%] | Emax (human LPA4 receptor; [2]) [%] | EC50 (human LPA1 receptor; BSA added) [nM] | EC50 (human LPA4 receptor; BSA added) [nM] | Emax (human LPA4 receptor; [3]) [%]
1 | CCCCCCCCCOc1ccc(CCC(=O)N2CC(OP(=O)(O)O)C2)cc1 [Example 1, 1-{3-[4-(Nonyloxy)phenyl]propanoyl}azetidin-3-yl dihydrogen phosphate ammonium salt] | > 10000 | 28 | 119 |  |  |  | 
2 | CCCCCCc1ccc(CCCCC(=O)N2CC(OP(=O)(O)O)C2)cc1 [Example 7, 1-[5-(4-Hexylphenyl)pentanoyl]azetidin-3-yl dihydrogen phosphate] | > 10000 | 37 | 125 |  |  |  | 
3 | Cc1ccc(CCCCCCCCCC(=O)N2CC(OP(=O)(O)O)C2)cc1 [Example 10, 1-[10-(4-Methylphenyl)decanoyl]azetidin-3-yl dihydrogen phosphate] | > 10000 | 30 |  | 101 |  |  | 
4 | CCCc1ccc(CCCCCCCC(=O)N2CC(OP(=O)(O)O)C2)cc1 [Example 15, 1-[8-(4-Propylphenyl)octanoyl]azetidin-3-yl dihydrogen phosphate] | > 10000 | 42 | 75 |  |  |  | 
5 | CCCCCCCCCCOc1cccc(CCC(=O)N2CC[C@@H](OP(=O)(O)O)C2)c1 [Example 18, (3R)-1-{3-[3-(Decyloxy)phenyl]propanoyl}pyrrolidin-3-yl dihydrogen phosphate ammonium salt] | > 10000 | 1.9 | 122 |  |  |  | 
6 | CCCCCCCCCOc1ccc(CCC(=O)N2CC[C@@H](OP(=O)(O)O)C2)cc1 [Example 20, (3R)-1-{3-[4-(Nonyloxy)phenyl]propanoyl}pyrrolidin-3-yl dihydrogen phosphate ammonium salt] | > 10000 | 20 | 153 |  |  |  | 
7 | CCc1ccc(CCCCCCCCC(=O)N2CC[C@@H](OP(=O)(O)O)C2)cc1 [Example 24, (3R)-1-[9-(4-Ethylphenyl)nonanoyl]pyrrolidin-3-yl dihydrogen phosphate ammonium salt] | > 10000 | 5.6 | 138 |  |  |  | 
8 | CCCCCCCCOc1ccc(CCCC(=O)N2CC(OP(=O)(O)O)C2)cc1 [Example 26, 1-{4-[4-(Octyloxy)phenyl]butanoyl}azetidin-3-yl dihydrogen phosphate] | > 10000 | 10 |  | 125 |  |  | 
9 | Cc1ccc(CCc2ccc(CCCC(=O)N3CC[C@@H](OP(=O)(O)O)C3)cc2)cc1 [Example 29, (3R)-1-(4-{4-[2-(4-Methylphenyl)ethyl]phenyl}butanoyl)pyrrolidin-3-yl dihydrogen phosphate ammonium salt] | > 10000 | 45 | 145 |  |  |  | 
10 | CCCCCCCCCCOc1cccc(CCC(=O)N(CCOP(=O)(O)O)CC(C)C)c1 [Example 33, 2-[{3-[3-(Decyloxy)phenyl]propanoyl}(2-methylpropyl)amino]ethyl dihydrogen phosphate ammonium salt] | > 10000 | 33 | 121 |  |  |  | 
11 | CCCCCCCCc1cccc(CCCCCCCC(=O)N2CC(OP(=O)(O)O)C2)c1 [Example compound 43, 1-[8-(3-Octylphenyl)octanoyl]azetidin-3-yl dihydrogen phosphate ammonium salt] | > 10000 | 27 | 86 |  |  |  | 
12 | CCCCCCCCCCOc1cccc(CCC(=O)N(CCCCOC)CCOP(=O)(O)O)c1 [Example compound 47, 2-[{3-[3-(Decyloxy)phenyl]propanoyl}(4-methoxybutyl)amino]ethyl dihydrogen phosphate ammonium salt] | > 10000 | 46 | 94 |  |  |  | 
13 | CCCCCCCCCCOc1cccc(CCC(=O)N(CCCCCO)CCOP(=O)(O)O)c1 [Example compound 50, 2-[{3-[3-(Decyloxy)phenyl]propanoyl}(5-hydroxypentyl)amino]ethyl dihydrogen phosphate ammonium salt] | > 1000 | 23 | 79 |  |  |  | 
14 | CCCCCCCCCCOc1cccc(CCC(=O)N(CCOP(=O)(O)O)Cc2ccc(OC)cc2)c1 [Example compound 54, 2-[{3-[3-(Decyloxy)phenyl]propanoyl}(4-methoxybenzyl)amino]ethyl dihydrogen phosphate ammonium salt] | > 10000 | < 41 | 106 |  |  |  | 
15 | CCCCCCCCCCOc1cccc(CCC(=O)N(CCOP(=O)(O)O)Cc2ccncc2)c1 [Example compound 58, 2-[{3-[3-(Decyloxy)phenyl]propanoyl}(pyridin-4-ylmethyl)amino]ethyl dihydrogen phosphate ammonium salt] | > 3000 | < 41 | 148 |  |  |  | 
16 | CCCCCCCc1ccc(CCCCC(=O)N2CC(OP(=O)(O)O)C2)cc1 [Example compound 59, 1-[5-(4-Heptylphenyl)pentanoyl]azetidin-3-yl dihydrogen phosphate ammonium salt] | > 10000 | < 41 | 86 |  |  |  | 
17 | CC(C)c1ccc(CCCCCCCCC(=O)N2CC(OP(=O)(O)O)C2)cc1 [Example compound 66, 1 {9-[4-(Propan-2-yl)phenyl]nonanoyl}azetidin-3-yl dihydrogen phosphate] | > 10000 | < 41 | 280 |  |  |  | 
18 | O=C(CCCCCCCCc1ccc(C2CC2)cc1)N1CC(OP(=O)(O)O)C1 [Example compound 87, 1-[9-(4-Cyclopropylphenyl)nonanoyl]azetidin-3-yl dihydrogen phosphate ammonium salt] |  |  |  |  | > 10000 | 50 | 97
19 | O=C(CCCCc1cccc(OCCCCC2CCCCC2)c1)N1CC(OP(=O)(O)O)C1 [Example compound 88, 1-{5-[3-(4-Cyclohexylbutoxy)phenyl]pentanoyl}azetidinyl dihydrogen phosphate ammonium salt] |  |  |  |  | > 10000 | 20 | 152
20 | O=C(CCCCCCCCc1ccc(C2CCCCC2)cc1)N1CC(OP(=O)(O)O)C1 [Example compound 93, 1-[9-(4-Cyclohexylphenyl)nonanoyl]azetidin-3-yl dihydrogen phosphate] |  |  |  |  | > 10000 | < 41 | 113
21 | CCCCCCCCCCOc1cccc(CCC(=O)N(CCOP(=O)(O)O)Cc2cccc(OC)c2)c1 [Example compound 95, 2-[{3-[3-(Decyloxy)phenyl]propanoyl}(3-methoxybenzyl)amino]ethyl dihydrogen phosphate ammonium salt] |  |  |  |  | > 10000 | < 41 | 136
22 | CCCCCCCc1ccc(CCCCC(=O)N2CC(OP(=O)(O)O)C2)c(C(F)(F)F)c1 [Example compound 100, 1-{5-[4-Heptyl-2-(trifluoromethyl)phenyl]pentanoyl}azetidin-3-yl dihydrogen phosphate ammonium salt] |  |  |  |  | > 10000 | 40 | 108
23 | CCCc1ccc(CCCCCCCCC(=O)N(CCOP(=O)(O)O)Cc2cncs2)cc1 [Example compound 102, 2-{[9-(4-Propylphenyl)nonanoyl] (1,3-thiazol-5-ylmethyl)amino}ethyl dihydrogen phosphate ammonium salt] |  |  |  |  | > 10000 | 47 | 121
